Reference: ChEMBL document CHEMBL5331117, “X-Ray Conformation and Structure-Activity Relationships of MA026, a Reversible Tight Junction Opener” (J Med Chem, 2023)

Each compound was assayed on MDCK-II (assay: Induction of claudin-1 mediated tight junction opening in MDCK-II cells assessed as increase in FITC-conjugated dextran incubated for 5 hrs relative to control). Conditions: Canis lupus familiaris.
Format: cell-based
Set-up: concentration or dose not given beside the values

SMILES | Activity [%]
CCCCCCC[C@@H](O)CC(=O)N[C@@H](CC(C)C)C(=O)N[C@H](CCC(=O)O)C(=O)N[C@H](CCC(N)=O)C(=O)N[C@@H](C(=O)N[C@H](CC(C)C)C(=O)N[C@@H](CCC(N)=O)C(=O)N[C@@H]1COC(=O)[C@H]([C@@H](C)CC)NC(=O)[C@@H](CCC(N)=O)NC(=O)[C@H](C)NC(=O)[C@H](CC(C)C)NC(=O)[C@@H](CCC(N)=O)NC(=O)[C@@H](CC(C)C)NC(=O)[C@@H](C(C)C)NC1=O)C(C)C | 9.8
CCCCCCCCCC(=O)N[C@@H](CC(C)C)C(=O)N[C@H](CCC(=O)O)C(=O)N[C@H](CCC(N)=O)C(=O)N[C@@H](C(=O)N[C@H](CC(C)C)C(=O)N[C@@H](CCC(N)=O)C(=O)N[C@@H]1COC(=O)[C@H]([C@@H](C)CC)NC(=O)[C@@H](CCC(N)=O)NC(=O)[C@H](CC(C)C)NC(=O)[C@H](CC(C)C)NC(=O)[C@@H](CCC(N)=O)NC(=O)[C@H](CC(C)C)NC(=O)[C@@H](C(C)C)NC1=O)C(C)C | 3.8
CCCCCCC[C@@H](O)CC(=O)N[C@@H](CC(C)C)C(=O)N[C@H](CCC(=O)O)C(=O)N[C@H](CCC(N)=O)C(=O)N[C@@H](C(=O)N[C@H](CC(C)C)C(=O)N[C@@H](CCC(N)=O)C(=O)N[C@@H]1COC(=O)[C@H]([C@@H](C)CC)NC(=O)[C@@H](CCC(N)=O)NC(=O)[C@H](CC(C)C)NC(=O)[C@H](CC(C)C)NC(=O)[C@@H](CCC(N)=O)NC(=O)[C@@H](C)NC(=O)[C@@H](C(C)C)NC1=O)C(C)C | 10.9
CCCCCCCCCC(=O)N[C@@H](CC(C)C)C(=O)N[C@H](CCC(=O)O)C(=O)N[C@H](CCC(N)=O)C(=O)N[C@@H](C(=O)N[C@H](CC(C)C)C(=O)N[C@@H](CCC(N)=O)C(=O)N[C@H]1COC(=O)[C@H]([C@@H](C)CC)NC(=O)[C@@H](CCC(N)=O)NC(=O)[C@H](CC(C)C)NC(=O)[C@H](CC(C)C)NC(=O)[C@@H](CCC(N)=O)NC(=O)[C@@H](CC(C)C)NC(=O)[C@@H](C(C)C)NC1=O)C(C)C | 2.3
CCCCCCCCCC(=O)N[C@@H](CC(C)C)C(=O)N[C@H](CCC(=O)O)C(=O)N[C@H](CCC(N)=O)C(=O)N[C@@H](C(=O)N[C@H](CC(C)C)C(=O)N[C@@H](CCC(N)=O)C(=O)N[C@@H]1COC(=O)[C@H]([C@@H](C)CC)NC(=O)[C@@H](CCC(N)=O)NC(=O)[C@@H](CC(C)C)NC(=O)[C@H](CC(C)C)NC(=O)[C@@H](CCC(N)=O)NC(=O)[C@@H](CC(C)C)NC(=O)[C@@H](C(C)C)NC1=O)C(C)C | -2.3
CCCCCCCCCC(=O)N[C@@H](CC(C)C)C(=O)N[C@H](CCC(=O)O)C(=O)N[C@H](CCC(N)=O)C(=O)N[C@@H](C(=O)N[C@H](CC(C)C)C(=O)N[C@@H](CCC(N)=O)C(=O)N[C@@H]1COC(=O)[C@H]([C@@H](C)CC)NC(=O)[C@@H](CCC(N)=O)NC(=O)[C@H](CC(C)C)NC(=O)[C@H](CC(C)C)NC(=O)[C@@H](CCC(N)=O)NC(=O)[C@@H](CC(C)C)NC(=O)[C@H](C(C)C)NC1=O)C(C)C | 0.4
CCCCCCC[C@@H](O)CC(=O)N[C@@H](C)C(=O)N[C@H](CCC(=O)O)C(=O)N[C@H](CCC(N)=O)C(=O)N[C@@H](C(=O)N[C@H](CC(C)C)C(=O)N[C@@H](CCC(N)=O)C(=O)N[C@@H]1COC(=O)[C@H]([C@@H](C)CC)NC(=O)[C@@H](CCC(N)=O)NC(=O)[C@H](CC(C)C)NC(=O)[C@H](CC(C)C)NC(=O)[C@@H](CCC(N)=O)NC(=O)[C@@H](CC(C)C)NC(=O)[C@@H](C(C)C)NC1=O)C(C)C | 31.8
CCCCCCC[C@@H](O)CC(=O)N[C@@H](CC(C)C)C(=O)N[C@H](CCC(=O)O)C(=O)N[C@H](CCC(N)=O)C(=O)N[C@@H](C(=O)N[C@H](CC(C)C)C(=O)N[C@@H](CCC(N)=O)C(=O)N[C@@H]1COC(=O)[C@H](C)NC(=O)[C@@H](CCC(N)=O)NC(=O)[C@H](CC(C)C)NC(=O)[C@H](CC(C)C)NC(=O)[C@@H](CCC(N)=O)NC(=O)[C@@H](CC(C)C)NC(=O)[C@@H](C(C)C)NC1=O)C(C)C | 0.2
CCCCCCCCCC(=O)N[C@@H](CC(C)C)C(=O)N[C@H](CCC(=O)O)C(=O)N[C@H](CCC(N)=O)C(=O)N[C@@H](C(=O)N[C@H](CC(C)C)C(=O)N[C@H](CCC(N)=O)C(=O)N[C@@H]1COC(=O)[C@H]([C@@H](C)CC)NC(=O)[C@@H](CCC(N)=O)NC(=O)[C@H](CC(C)C)NC(=O)[C@H](CC(C)C)NC(=O)[C@@H](CCC(N)=O)NC(=O)[C@@H](CC(C)C)NC(=O)[C@@H](C(C)C)NC1=O)C(C)C | 0.8
CCCCCCCCCC(=O)N[C@@H](CC(C)C)C(=O)N[C@H](CCC(=O)O)C(=O)N[C@H](CCC(N)=O)C(=O)N[C@@H](C(=O)N[C@H](CC(C)C)C(=O)N[C@@H](CCC(N)=O)C(=O)N[C@@H]1COC(=O)[C@@H]([C@@H](C)CC)NC(=O)[C@@H](CCC(N)=O)NC(=O)[C@H](CC(C)C)NC(=O)[C@H](CC(C)C)NC(=O)[C@@H](CCC(N)=O)NC(=O)[C@@H](CC(C)C)NC(=O)[C@@H](C(C)C)NC1=O)C(C)C | 18.3

Same assay, conditions: Canis lupus familiaris, filed as opener

SMILES | Activity [%]
CCCCCCCCCC(=O)N[C@@H](CC(C)C)C(=O)N[C@H](CCC(=O)O)C(=O)N[C@H](CCC(N)=O)C(=O)N[C@@H](C(=O)N[C@@H](CC(C)C)C(=O)N[C@@H](CCC(N)=O)C(=O)N[C@@H]1COC(=O)[C@H]([C@@H](C)CC)NC(=O)[C@@H](CCC(N)=O)NC(=O)[C@H](CC(C)C)NC(=O)[C@H](CC(C)C)NC(=O)[C@@H](CCC(N)=O)NC(=O)[C@@H](CC(C)C)NC(=O)[C@@H](C(C)C)NC1=O)C(C)C | 48.8
CCCCCCCCCC(=O)N[C@H](CC(C)C)C(=O)N[C@H](CCC(=O)O)C(=O)N[C@H](CCC(N)=O)C(=O)N[C@@H](C(=O)N[C@H](CC(C)C)C(=O)N[C@@H](CCC(N)=O)C(=O)N[C@@H]1COC(=O)[C@H]([C@@H](C)CC)NC(=O)[C@@H](CCC(N)=O)NC(=O)[C@H](CC(C)C)NC(=O)[C@H](CC(C)C)NC(=O)[C@@H](CCC(N)=O)NC(=O)[C@@H](CC(C)C)NC(=O)[C@@H](C(C)C)NC1=O)C(C)C | 56.8
CCCCCCCCCC(=O)N[C@@H](CC(C)C)C(=O)N[C@H](CCC(=O)O)C(=O)N[C@H](CCC(N)=O)C(=O)N[C@@H](C(=O)N[C@H](CC(C)C)C(=O)N[C@@H](CCC(N)=O)C(=O)N[C@@H]1COC(=O)[C@H]([C@@H](C)CC)NC(=O)[C@@H](CCC(N)=O)NC(=O)[C@H](CC(C)C)NC(=O)[C@H](CC(C)C)NC(=O)[C@H](CCC(N)=O)NC(=O)[C@@H](CC(C)C)NC(=O)[C@@H](C(C)C)NC1=O)C(C)C | 47.6
CCCCCCC[C@@H](O)CC(=O)N[C@@H](CC(C)C)C(=O)N[C@H](CCC(=O)O)C(=O)N[C@H](CCC(N)=O)C(=O)N[C@@H](C(=O)N[C@H](CC(C)C)C(=O)N[C@@H](CCC(N)=O)C(=O)N[C@@H]1COC(=O)[C@H]([C@@H](C)CC)NC(=O)[C@@H](CCC(N)=O)NC(=O)[C@H](CC(C)C)NC(=O)[C@H](CC(C)C)NC(=O)[C@@H](C)NC(=O)[C@@H](CC(C)C)NC(=O)[C@@H](C(C)C)NC1=O)C(C)C | 85.3
